Results reported in PubChem BioAssay AID624167 (Sanford-Burnham Center for Chemical Genomics, 2012).
Calls of active or inactive are those of the source.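 How the source made its calls: active means mean IC50 for reducing PEG3 promoter reporter signal at or below a set limit, with IC50 above the limit in both counter screens; inactive means the rest, including counter screen hits.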

Key:
[1] = Peg3 promoter luciferase inhibitors, potency, dose response, cell-based, HeLa, CREF/GAPDH counter-screen panel (AID 624167); conditions: CREF/GAPDH counter-screens; GAPDH; mean of runs
[2] = tested on: GAPDH; test: as above; conditions: CREF/GAPDH counter-screens
[3] = target: PEG-3 (UniProt Q6IN02); test: as above; conditions: HeLa PEG-Prom luciferase reporter, overnight, CREF/GAPDH counter-screens, mean of runs
PEG-3 (UniProt Q6IN02), sequence (Q6IN02 whole entry, looked up): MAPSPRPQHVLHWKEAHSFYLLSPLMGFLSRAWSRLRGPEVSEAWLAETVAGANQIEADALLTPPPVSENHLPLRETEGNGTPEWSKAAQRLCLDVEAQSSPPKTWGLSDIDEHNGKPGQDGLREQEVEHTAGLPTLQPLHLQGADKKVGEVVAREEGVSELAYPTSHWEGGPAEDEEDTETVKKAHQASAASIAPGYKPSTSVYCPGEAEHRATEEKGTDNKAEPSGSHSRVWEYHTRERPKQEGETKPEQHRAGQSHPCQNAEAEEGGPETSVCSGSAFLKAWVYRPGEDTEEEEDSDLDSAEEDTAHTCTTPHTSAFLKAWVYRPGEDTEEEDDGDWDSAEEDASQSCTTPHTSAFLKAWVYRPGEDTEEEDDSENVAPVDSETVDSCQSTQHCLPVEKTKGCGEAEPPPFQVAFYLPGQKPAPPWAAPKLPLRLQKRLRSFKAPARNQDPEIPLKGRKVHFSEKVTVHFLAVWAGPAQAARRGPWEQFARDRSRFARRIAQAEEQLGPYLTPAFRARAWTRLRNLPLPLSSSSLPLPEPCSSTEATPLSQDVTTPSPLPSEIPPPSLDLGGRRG

[4] = tested on: PEG-3; test: as above; conditions: HeLa PEG-Prom luciferase reporter, overnight, CREF/GAPDH counter-screens
[5] = tested on: Rat fibroblasts (CREF); test: as above; conditions: CREF/GAPDH counter-screens
[6] = run 1, dose range 1, individual replicate IC50 per panel
[7] = run 2, dose range 1, individual replicate IC50 per panel

SMILES | IC50 [1] | IC50 [2, 6] | IC50 [2, 7] | IC50 [3] | IC50 [4, 6] | IC50 [4, 7] | IC50 ([5]; mean of runs) | IC50 [5, 6] | IC50 [5, 7]
O=[N+]([O-])c1nn(-c2ccc3c(c2)OCCO3)n(O)c1=Nc1ccc(Cl)cc1 | 5.17 µM | 2.94 µM | 7.41 µM | 0.673 µM | 1.07 µM | 0.271 µM | > 100 µM (inactive) | > 100 µM | > 100 µM
O=[N+]([O-])c1ccc(S(=O)(=O)c2ccccc2)nc1 | inactive | 33.8 µM | 29.1 µM | 9 µM | 9.44 µM | 8.56 µM | 54.4 µM (inactive) | 8.84 µM | > 100 µM
COc1ccc(C(NC(=O)C(C)C)c2ccc3cccnc3c2O)cc1 (stereo not given) | > 100 µM (inactive) | > 100 µM | > 100 µM | 4.7 µM | 3.71 µM | 5.68 µM | 23.3 µM | 12.3 µM | 34.3 µM
CC(=O)c1ccc(-c2cnc3c(NC=O)cc(-c4ccccc4Oc4ccccc4)cn23)cc1 | inactive | 91.1 µM | > 100 µM | 7.2 µM | 5.46 µM | 8.94 µM | 54.5 µM (inactive) | > 100 µM | 8.93 µM
Oc1[nH]c2ccc(Br)cc2c1N=NC(=S)N1CCOCC1 | 13.8 µM | 18.8 µM | 8.78 µM | 1.07 µM | 1.25 µM | 0.885 µM | 50.3 µM (inactive) | > 100 µM | 0.611 µM
CC(=O)OC1CC[C@]2(C#N)[C@H]3CC[C@]4(C)[C@H](C5C=CC(=O)O5)CCC4(O)C3CCC2(O)C1 (stereo not given in full) | 10.1 µM | 3.88 µM | 16.4 µM | 10.4 µM | 9.87 µM | 11 µM | > 100 µM (inactive) | > 100 µM | > 100 µM
Cc1ccc(-n2c(N)c(C(=O)Nc3c(C)n(C)n(-c4ccccc4)c3=O)c3nc4ccccc4nc32)cc1 | 27.5 µM | 26.6 µM | 28.5 µM | 7.52 µM | 9.84 µM | 5.21 µM | 43.3 µM | 37.1 µM | 49.4 µM
O=C(CCSc1nc2ccccc2s1)N/N=C/c1c(O)ccc2ccccc12 | > 100 µM (inactive) | > 100 µM | > 100 µM | 4.29 µM | 5.86 µM | 2.71 µM | > 100 µM (inactive) | > 100 µM | > 100 µM
CC(C)CCCCCCCCCCCCC(=O)NCC(=O)NC1C(O)C(O)C(Nc2ncnc3nc[nH]c23)OC1C(O)CO (stereo not given) | < 0.2 µM | < 0.2 µM | < 0.2 µM | 1.82 µM | 3.44 µM | < 0.2 µM | 50.1 µM (inactive) | < 0.2 µM | > 100 µM
CCOc1cccc(/C=N/NC(=S)Nc2cc(S(=O)(=O)N3CCOCC3)ccc2N2CCOCC2)c1O | > 100 µM (inactive) | > 100 µM | > 100 µM | 17.3 µM | 9.08 µM | 25.5 µM | 72.8 µM (inactive) | > 100 µM | 72.8 µM
COc1cc(CNCCCN2CCOCC2)cc(Br)c1OCc1ccc(Cl)cc1 | 12.3 µM | 15.3 µM | 9.28 µM | 9.28 µM | 9.57 µM | 8.99 µM | 14.4 µM | > 80 µM | 14.4 µM
O=C(O)c1ccc(N/N=C/c2ccc3c(c2)OCO3)cc1 | 2.02 µM | 1.37 µM | 2.67 µM | 1.56 µM | 1.24 µM | 1.89 µM | 52.3 µM (inactive) | 57.5 µM | 47.1 µM
O=C(COc1ccc2c(c1)CCC2)Nc1ccccn1 | 5.82 µM | 2.94 µM | 8.7 µM | 4.55 µM | 3.52 µM | 5.59 µM | 33.2 µM | 29.2 µM | 37.2 µM
CCc1ccc(/C=C2\SC(=S)N(CCCC(=O)Nc3ccccn3)C2=O)cc1 | 27.8 µM | 15.6 µM | 40.1 µM | 4.03 µM | 5.21 µM | 2.85 µM | 50.2 µM (inactive) | > 100 µM | 0.313 µM
CCCn1nc(C(=O)Nc2nc(-c3ccccn3)cs2)c2ccccc2c1=O | inactive | > 100 µM | 80.9 µM | 7.73 µM | 7.15 µM | 8.31 µM | > 100 µM (inactive) | > 100 µM | > 100 µM
